Patent US11235023B2, “Beta-hairpin peptidomimetic with elastase inhibitory activity and aerosol dosage forms thereof” (POLYPHOR AG, priority 2016, dated 2022)
Non-standard residues stand in square brackets, D forms with d. Residues, ends and D or L forms follow the SMILES beside them. Gly(octyl) = CCCCCCCC[C@H](N)C(=O)O

Key:
neutrophil elastase = assay: LPS/fMLP model of neutrophil activation in the rat, neutrophil elastase activity in BAL supernatant; type: in vivo; details: for NE activity: BAL 6 h post LPS, mean ± s.e.m., vehicle 0.25 ± 0.02
[1] = GLP-compliant 28-day inhalation toxicity study in monkeys; type: in vivo, cynomolgus monkey
Description: In a GLP-compliant 28-day inhalation toxicity study in cynomolgus monkeys, conducted by Charles River Laboratories Preclinical Services, Tranent, Edinburgh, UK, the formulation described in Example 2 and dilutions thereof as well as the vehicle were administered using the Pari eFlow® XL 30 nebulizer device (Pari Pharma, Starnberg, Germany) with an oro-nasal inhalation mask for 60 min per day for 28 days, followed by a 2-week recovery period. […] In total five males and five females were used for each dose of the toxicity study including recovery. Parameters assessed included clinical signs, body weights, electrocardiology, ophthalmic examination, clinical pathology, toxicokinetic parameters in the plasma, gross necropsy findings, organ weights and histopathologic examinations.

[2] = First-in-man study in healthy subjects, safety and tolerability of orally inhaled single doses; type: in vivo, human
From the text: In this randomised, double-blind, placebo-controlled, parallel-group (per dose level) dose-escalation study of inhaled single doses in 48 healthy subjects in six dose groups of eight subjects each, conducted by Inamed GmbH, Gauting, Germany, the controlled oral inhalation of the formulation described in Example 1 and dilutions thereof as well as the placebo (0.5% [w/w] aqueous sodium chloride solution adjusted to pH 5.5 with 1 M HCl pharmaceutical grade) occurred via the Pari eFlow® XL 30 nebulizer device (Pari Pharma GmbH, Starnberg, Germany). The dose levels and corresponding concentrations of cyclo(-OctG-Glu-Thr-Ala-Ser-Ile-Pro-Pro-Gln-Lys-Tyr-^DPro-Pro-) (active compound) are summarized in Table 10.
(§1) The volume of placebo nebulizer solution corresponded to that of the active compound at a particular dose level. The duration of inhalation depended on the total volume of nebulizer solution and ranged between several minutes and roughly one hour. Adverse events were tabulated and summarized according to the current version of Medical Dictionary for Regulatory Activities.

[3] = Phase-Ib study in CF patients, sputum concentrations (LC-MS/MS); type: in vivo, human
Description: Concentrations of active compound in sputum were calculated and Cmax and AUC0-tlast were determined.
Spontaneous sputum samples for PK assessments were collected during the following time intervals/periods:
On Day −1 as soon as possible after the subject's arrival at the study site (blank PK), on Day 1 in the period of time between 1 h and 3 h after start of inhalation, and in the morning of Day 2, at approx. 24 h after start of inhalation. Moreover, any spontaneous sputum expectoration between 0-1 h after start of inhalation was collected.
Spontaneous sputum samples were collected in polystyrene Petri dishes and put on ice immediately. All processing steps had to be performed with cold reagents and on ice whenever possible. Plugs were separated from saliva, but the latter was not discarded. If a sputum sample was taken for both PK and neutrophil elastase activity in sputum analysis, the plug was split in 2 approximately equal parts. One part was processed for PK analysis the other one for evaluation of neutrophil elastase activity in sputum.
For PK processing, the resulting plug was split in approximately 2 equal parts. […] The weight of the sputum samples (SP1+SP3) was determined and all samples were immediately put on dry ice for freezing. […]
The pharmacokinetic parameters mentioned above were calculated based on actual blood and sputum sampling times using non-compartmental procedures.

[4] = Phase-Ib single ascending dose study in patients with cystic fibrosis, safety and tolerability; type: in vivo, human
From the text: In this randomised, double-blind, placebo-controlled, parallel-group (per dose level) dose-escalation study, the safety and tolerability of single ascending doses (SAD) of acetate salt of cyclo(-OctG-Glu-Thr-Ala-Ser-Ile-Pro-Pro-Gln-Lys-Tyr-^DPro-Pro-) administered by inhalation in patients with cystic fibrosis (CF) was investigated. Additionally, the pharmacokinetics of the drug following a single ascending dose in plasma and sputum as well as its pharmacodynamic effect on neutrophil elastase activity in sputum were evaluated.
In this study, conducted by Inamed GmbH, Gauting, Germany, 24 subjects with cystic fibrosis, who fulfilled all the inclusion criteria and in whom no exclusion criterion was present, were included and received randomised treatment. They were grouped into 3 dose groups of 8 subjects each. 6 subjects received the formulation described in Example 1 and dilutions thereof and 2 subjects received placebo (0.5% [w/w] aqueous sodium chloride solution adjusted to pH 5.5 with 1 M HCl pharmaceutical grade). The oral inhalation of the above formulation as well as the placebo occurred via the Pari eFlow® XL 30 nebulizer device (Pari Pharma GmbH, Starnberg, Germany). The dose levels and corresponding concentrations of cyclo(-OctG-Glu-Thr-Ala-Ser-Ile-Pro-Pro-Gln-Lys-Tyr-^DPro-Pro-) (active compound) are summarized in Table 14.
as §1, with “was estimated to be between 7” for “depended on the total volume of nebulizer solution”, “20 min.” for “ranged between several minutes and roughly one hour.”

CCCCCCCC[C@@H]1NC(=O)[C@@H]2CCCN2C(=O)[C@H]2CCCN2C(=O)[C@H](Cc2ccc(O)cc2)NC(=O)[C@H](CCCCN)NC(=O)[C@H](CCC(N)=O)NC(=O)[C@@H]2CCCN2C(=O)[C@@H]2CCCN2C(=O)[C@H]([C@@H](C)CC)NC(=O)[C@H](CO)NC(=O)[C@H](C)NC(=O)[C@H]([C@@H](C)O)NC(=O)[C@H](CCC(=O)O)NC1=O [active compound, cyclo(-OctG-Glu-Thr-Ala-Ser-Ile-Pro-Pro-Gln-Lys-Tyr-^DPro-Pro-)] (cyclo([Gly(octyl)]ETASIPPQKY[dP]P))
Effect on neutrophil elastase activity in BAL fluid (neutrophil elastase; 0.3, 3 and 30 mg/kg by inhalation 3 h post LPS, 1 h prior to fMLP): significantly inhibited | Test item related clinical signs (neutrophil elastase; between dosing period and study termination): No test item related clinical signs were observed | NE activity (neutrophil elastase; inhalation 0.3 mg/kg): 0.10 ± 0.01 mU/mL eq. | NE activity (neutrophil elastase; inhalation 3 mg/kg): 0.11 ± 0.01 mU/mL eq. | NE activity (neutrophil elastase; inhalation 30 mg/kg): 0.07 ± 0.01 mU/mL eq. | Efficacy in previous intratracheal study (neutrophil elastase; intratracheal doses of 0.03 to 3 mg/kg): efficacious | NOAEL at 28 days ([1]; both sexes, in vivo, inhaled or intranasal, cynomolgus monkey, oro-nasal inhalation 60 min per day for 28 days): 112 mg/kg/day | Haematology and clinical pathology ([1]; cynomolgus monkey, in vivo): some minor, toxicologically insignificant changes | Histopathologic findings ([1]; cynomolgus monkey, in vivo): increased numbers of alveolar macrophages, perivascular/peribronchiolar infiltrates, and granular eosinophilic deposits in the lung and lymphoid hyperplasia in the tracheobronchial lymph nodes | Gross findings: lung weight ([1]; male monkeys at 112 mg/kg/day): increased lung weight | Body weight, clinical signs, ophthalmic, electrocardiographic and urinary findings ([1]; monkey, 11.2, 30.1 and 112 mg/kg/day): no body weight changes, clinical signs, ophthalmic or electrocardiographic findings or changes in urinary parameters attributable to drug treatment | Deaths, serious and other significant adverse events ([2]; healthy subjects, single inhaled doses 20-960 mg): No death, no serious adverse events (AE) and no other significant AE | Inhalation-related adverse events ('cough'), local tolerability ([2]; human, in vivo): three | Number of subjects with AEs ([2]; human, in vivo): 13 | Number of treatment-emergent adverse events (TEAEs) ([2]; human, in vivo): 24 | Proportion of subjects with AEs ([2]; human, in vivo): 27.1% | Subjects judging overall tolerability as 'very good' or 'good' ([2]; human, in vivo): 97.9% | Detection in sputum at 24 h after inhalation ([3]; all dose groups): still detected | Concentration in sputum relative to plasma ([3]; comparison of FIG. 4 and FIG. 3): approximately 10^3 fold | Deaths, serious and other significant adverse events ([4]; CF patients, single inhaled doses 80, 160, 320 mg): No death, no serious adverse events (AE) and no other significant AE | Causal relationship of TEAEs ([4]; human, in vivo): not related to the active compound | Inhalation-related local AEs ([4]; human, in vivo): no inhalation-related local AEs | Total number of AEs (all TEAEs) ([4]; human, in vivo): 6
